Experimental data reported in patent US20090324760A1, “Hair tonic” (priority 2005, published 2009).

System: C3H mice
Test: Hair-growth test on shaved back of C3H mice
Type: in vivo
Details: 0.2 mL per mouse twice a day for two weeks, measured on sixteenth day
Protocol: The hair-growth promoting effect of the hair tonic of the invention was evaluated according to the following hair-growth test. Commercially available acteoside (manufactured by ChromaDex Corp.) or the crude acteoside according to example 1 was dissolved in a 55% wt aqueous ethanol solution. Comparative example 1 was carried out using this aqueous ethanol solution as the reference.
C3H mice (males of 8-week age, average weight 35 g, a group of 10 mice) were used as test animals. Their back (2 cm×4 cm) was shaved to prepare a test area and from the following day onwards, each test sample (0.2 mL per mouse) was applied twice a day(morning and evening) for two weeks. On the sixteenth day, a picture of the test area was taken with a video camera, and hair-growth was measured with an image analyzer. The hair-growth promoting effect was evaluated as hair-growth rate (%) calculated according to the equation reported below.
[Hair-growth rate (%)]=[area of the hair-growth portion]/[test area]×100

Substance: Acteoside [Example 2]
- Hair growth rate (sample concentration 0.1 % by weight in 55% wt aqueous ethanol): 61.05%
- Hair growth rate (sample concentration 0.2 % by weight in 55% wt aqueous ethanol): 65.02%
